As usually defined, the EC50 is the concentration that produces a half-maximal response.

Each structure is given as a SMILES string.

Among the data in patent US11180490B2, “Cyclopropyl urea formyl peptide 2 receptor and formyl peptide 1 receptor agonists” (BRISTOL-MYERS SQUIBB COMPANY, priority 2017, dated 2021) are EC50 values, retold here.

One experiment concerns the target T1, human FPR1 (Homo sapiens, UniProt P21462).
T1 sequence (P21462 1-350): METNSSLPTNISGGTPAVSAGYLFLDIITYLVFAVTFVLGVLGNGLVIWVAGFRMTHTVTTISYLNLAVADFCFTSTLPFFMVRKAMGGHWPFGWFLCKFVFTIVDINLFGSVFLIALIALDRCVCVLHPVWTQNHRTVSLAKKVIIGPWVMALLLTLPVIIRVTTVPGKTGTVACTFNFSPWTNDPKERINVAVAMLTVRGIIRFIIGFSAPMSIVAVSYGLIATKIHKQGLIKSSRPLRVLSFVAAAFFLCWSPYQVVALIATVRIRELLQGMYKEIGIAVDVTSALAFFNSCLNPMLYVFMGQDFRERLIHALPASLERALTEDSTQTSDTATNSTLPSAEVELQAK
Briefly: FPR1 cyclic adenosine monophosphate (cAMP) assay. Format: cell-based. The conditions noted are these: CHO cells overexpressing human FPR1; inhibition of forskolin-stimulated cAMP production; read-out: hFPR1 cAMP EC50. As to the method: (§1) FPR2 and FPR1 Cyclic Adenosine Monophosphate (cAMP) Assays. A mixture of forskolin (5 μM final for FPR2 or 10 μM final for FPR1) and IBMX (200 μM final) were added to 384-well Proxiplates (Perkin-Elmer) pre-dotted with test compounds in DMSO (1% final) at final concentrations in the range of 1.7 nM to 100 μM. Chinese Hamster Ovary cells (CHO) overexpressing human FPR1 or human FPR2 receptors were cultured in F-12 (Ham's) medium supplemented with 10% qualified FBS, 250 μg/ml zeocin and 300 μg/ml hygromycin (Life Technologies). Reactions were initiated by adding 2,000 human FPR2 cells per well or 4,000 human FPR1 cells per well in Dulbecco's PBS (with calcium and magnesium) (Life Technologies) supplemented with 0.1% BSA (Perkin-Elmer). The reaction mixtures were incubated for 30 min at room temperature. The level of intracellular cAMP was determined using the HTRF HiRange cAMP assay reagent kit (Cisbio) according to manufacturer's instruction. Solutions of cryptate conjugated anti-cAMP and d2 flurorophore-labelled cAMP were made in a supplied lysis buffer separately. Upon completion of the reaction, the cells were lysed with equal volume of the d2-cAMP solution and anti-cAMP solution. After a 1-h room temperature incubation, time-resolved fluorescence intensity was measured using the Envision (Perkin-Elmer) at 400 nm excitation and dual emission at 590 nm and 665 nm. A calibration curve was constructed with an external cAMP standard at concentrations ranging from 1 μM to 0.1 pM by plotting the fluorescent intensity ratio from 665 nm emission to the intensity from the 590 nm emission against cAMP concentrations. The potency and activity of a compound to inhibit cAMP production was then determined by fitting to a 4-parametric logistic equation from a plot of cAMP level versus compound concentrations.
For orientation: Changes in cAMP serve as a functional read-out for many G protein-coupled receptors.

A further experiment deals with T2, human FPR2 (Homo sapiens, UniProt P25090).
T2 sequence (P25090 1-351): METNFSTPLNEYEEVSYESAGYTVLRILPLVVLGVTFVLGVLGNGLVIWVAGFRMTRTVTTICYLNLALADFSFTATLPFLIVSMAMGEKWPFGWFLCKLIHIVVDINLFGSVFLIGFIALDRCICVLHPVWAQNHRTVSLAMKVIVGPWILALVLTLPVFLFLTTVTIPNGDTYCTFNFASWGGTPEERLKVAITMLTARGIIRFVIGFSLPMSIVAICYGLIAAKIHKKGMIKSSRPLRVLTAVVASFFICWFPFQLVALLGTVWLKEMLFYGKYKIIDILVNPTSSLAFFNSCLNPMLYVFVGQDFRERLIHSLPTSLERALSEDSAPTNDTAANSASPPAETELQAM
The experiment in a line: FPR2 cyclic adenosine monophosphate (cAMP) assay. The format is cell-based. The conditions noted are these: CHO cells overexpressing human FPR2; inhibition of forskolin-stimulated cAMP production; read-out: hFPR2 cAMP2 EC50. As to the method:
as §1

Turning to `COc1cc(F)c([C@@H]2CN(C)C(=O)[C@H]2NC(=O)NC2(c3ccc4ccccc4n3)CC2)c(F)c1` [Example 8, 1-[(3S,4R)-4-(2,6-difluoro-4-methoxyphenyl)-1-methyl-2-oxopyrrolidin-3-yl]-3-[1-(quinolin-2-yl)cyclopropyl]urea], the EC50 on human FPR1 is 66 nM; on human FPR2, 5.7 nM.
For `COc1cc(F)c([C@@H]2CNC(=O)[C@H]2NC(=O)NC2(c3ccc4cc(Cl)ccc4n3)CC2)c(F)c1` [Example 53, 3-[1-(6-chloroquinolin-2-yl)cyclopropyl]-1-[(3S,4R)-4-(2,6-difluoro-4-methoxyphenyl)-2-oxopyrrolidin-3-yl]urea], the EC50 stood at 430 nM at human FPR1 and 12 nM on human FPR2.
For `COc1cc(F)c([C@@H]2CNC(=O)[C@H]2NC(=O)NC2(c3ccc4cc(OC)ccc4c3)CC2)c(F)c1` [Example 63, 1-[(3S,4R)-4-(2,6-difluoro-4-methoxyphenyl)-2-oxopyrrolidin-3-yl]-3-[1-(6-methoxynaphthalen-2-yl)cyclopropyl]urea] the same measures were 1500 nM and 34 nM.
Take `COc1cc(F)c([C@@H]2CN(Cc3nnc(C)o3)C(=O)[C@H]2NC(=O)NC2(c3cccc(C)n3)CC2)c(F)c1` [Example 115]: the values for the EC50 at human FPR1 and on human FPR2 were 280 nM and 25 nM, respectively.
Take `CCCN1C[C@@H](c2c(F)cc(OC)cc2F)[C@H](NC(=O)NC2(c3ccc4ccccc4n3)CC2)C1=O` [Example 95, 1-[(3S,4R)-4-(2,6-difluoro-4-methoxyphenyl)-2-oxo-1-propylpyrrolidin-3-yl]-3-[1-(quinolin-2-yl)cyclopropyl]urea]: the EC50 was found to be 19 nM at human FPR1 and 1.7 nM on human FPR2.
In the same order, the values of `COc1cc(F)c([C@@H]2CNC(=O)[C@H]2NC(=O)NC2(c3cccc(Cl)n3)CC2)c(F)c1` [Example 1, 3-[1-(6-chloropyridin-2-yl)cyclopropyl]-1-[(3S,4R)-4-(2,6-difluoro-4-methoxyphenyl)-2-oxopyrrolidin-3-yl]urea] are 820 nM and 8.3 nM.
For `COc1cc(F)c([C@@H]2CN(CCO)C(=O)[C@H]2NC(=O)NC2(c3ccc4ccccc4n3)CC2)c(F)c1` [Example 67, 1-[(3S,4R)-4-(2,6-difluoro-4-methoxyphenyl)-1-(2-hydroxyethyl)-2-oxopyrrolidin-3-yl]-3-[1-(quinolin-2-yl)cyclopropyl]urea] the same measures were 700 nM and 63 nM.
Regarding `COc1cc(F)c([C@@H]2CNC(=O)[C@H]2NC(=O)NC2(c3nc4ccc(C)cc4s3)CC2)c(F)c1` [Example 85, 1-[(3S,4R)-4-(2,6-difluoro-4-methoxyphenyl)-2-oxopyrrolidin-3-yl]-3-[1-(6-methyl-1,3-benzothiazol-2-yl)cyclopropyl]urea], the half-maximal effective concentration (EC50) on human FPR1 turned out to be 1600 nM; at human FPR2, 12 nM.
`COc1cc(F)c([C@@H]2CNC(=O)[C@H]2NC(=O)NC2(c3ccc(Cl)c(C)n3)CC2)c(F)c1` [Example 47, 3-[1-(5-chloro-6-methylpyridin-2-yl)cyclopropyl]-1-[(3S,4R)-4-(2.6-difluoro-4-methoxyphenyl)-2-oxopyrrolidin-3-yl]urea]: the concentration for a half-maximal effect (EC50) on human FPR1 came to 270 nM; at human FPR2 it was 2.3 nM.
In the same order, the values of `COc1cc(F)c([C@@H]2CN(CC3CC3)C(=O)[C@H]2NC(=O)NC2(c3cccc(C)n3)CC2)c(F)c1` [Example 94, 1-((3S,4R)-1-(cyclopropylmethyl)-4-(2,6-difluoro-4-methoxyphenyl)-2-oxopyrrolidin-3-yl)-3-(1-(6-methylpyridin-2-yl)cyclopropyl)urea] are 26 nM and 1.5 nM.
Consider `COc1cc(F)c([C@@H]2CNC(=O)[C@H]2NC(=O)NC2(c3cccc(OCc4ccc5ccccc5c4)c3)CC2)c(F)c1` [Example 131, 1-[(3S,4R)-4-(2,6-difluoro-4-methoxyphenyl)-2-oxopyrrolidin-3-yl]-3-(l-{3-[(naphthalen-2-yl)methoxy]phenyl}cyclo-propyl)urea], for which the EC50 worked out at 1000 nM on human FPR1 and 4 nM on human FPR2.
In the same order, the values of `COc1cc(F)c([C@@H]2CNC(=O)[C@H]2NC(=O)NC2(c3ccc4ncccc4n3)CC2)c(F)c1` [Example 4, 1-[(3S,4R)-4-(2,6-difluoro-4-methoxyphenyl)-2-oxopyrrolidin-3-yl]-3-[1-(1,5-naphthyridin-2-yl)cyclopropyl]urea] are 1000 nM and 110 nM.
In the case of `COc1cc(F)c([C@@H]2CNC(=O)[C@H]2NC(=O)NC2(c3ccc(C)c(Cl)c3)CC2)c(F)c1` [Example 50, 3-[1-(3-chloro-4-methylphenyl)cyclopropyl]-1-[(3S,4R)-4-(2,6-difluoro-4-methoxyphenyl)-2-oxopyrrolidin-3-yl]urea], the EC50 at human FPR1 was 200 nM; on human FPR2, 1.7 nM.
For `COc1cc(F)c([C@@H]2CNC(=O)[C@H]2NC(=O)NC2(c3nc4c(C(F)(F)F)cccc4s3)CC2)c(F)c1` [Example 96, 1-[(3S,4R)-4-(2,6-difluoro-4-methoxyphenyl)-2-oxopyrrolidin-3-yl]-3-{1-[4-(trifluoromethyl)-1,3-benzothiazol-2-yl]cyclopropyl}urea] the same measures were 120 nM and 2 nM.
In the case of `COc1cc(F)c([C@@H]2CNC(=O)[C@H]2NC(=O)NC2(c3ccc(C)cc3)CC2)c(F)c1` [Example 2, 1-[(3S,4R)-4-(2,6-difluoro-4-methoxyphenyl)-2-oxopyrrolidin-3-yl]-3-[1-(4-methylphenyl)cyclopropyl]urea], the concentration giving a half-maximal response (EC50) at human FPR1 was 660 nM; at human FPR2, 33 nM.
In the same order, the values of `COc1ccc([C@@H]2CNC(=O)[C@H]2NC(=O)NC2(c3cccc(Cl)n3)CC2)c(F)c1` [Example 48, 3-[1-(6-chloropyridin-2-yl)cyclopropyl]-1-[(3S,4R)-4-(2-fluoro-4-methoxyphenyl)-2-oxopyrrolidin-3-yl]urea] are 140 nM and 9.7 nM.
In the same order, the values of `COc1cc(F)c([C@@H]2CN(CC(F)(F)F)C(=O)[C@H]2NC(=O)NC2(c3cccc(C)n3)CC2)c(F)c1` [Example 110, 1-[(3S,4R)-4-(2,6-difluoro-4-methoxyphenyl)-2-oxo-1-(2,2,2-trifluoroethyl)pyrrolidin-3-yl]-3-[1-(6-methylpyridin-2-yl)cyclopropyl]urea] are 150 nM and 14 nM.
In the case of `COc1cc(F)c([C@@H]2CNC(=O)[C@H]2NC(=O)NC2(c3ccc4ccccc4n3)CC2)c(F)c1` [Example 26, 1-[(3S,4R)-4-(2,6-difluoro-4-methoxyphenyl)-2-oxopyrrolidin-3-yl]-3-[1-(quinolin-2-yl)cyclopropyl]urea], the EC50 at human FPR1 worked out at 320 nM; on human FPR2, 6.4 nM.
`COc1cc(F)c([C@@H]2CNC(=O)[C@H]2NC(=O)NC2(c3cccc(C(F)(F)F)c3)CC2)c(F)c1` [Example 19, 1-[(3S,4R)-4-(2,6-difluoro-4-methoxyphenyl)-2-oxopyrrolidin-3-yl]-3-{1-[3-(trifluoro-methyl)phenyl]cyclo-propyl}urea]: the values for the EC50 at human FPR1 and on human FPR2 were 2300 nM and 49 nM, respectively.
